Measurements published in paper PMC10714828, “Proteomic analysis of anti-MRSA activity of caerin 1.1/1.9 in a murine skin infection model and their in vitro anti-biofilm effects against Acinetobacter baumannii” (Microbiology Spectrum, 2023).
Where two headings read alike, the source gives them in different places.

Assays:
E. coli (GDM1.176) = experiment: MIC by micro-broth dilution (CLSI); type: cell-based, Escherichia coli; settings: for inhibition of E. coli growth (in words): MIC test, Fig. 1E
Description: (§1) The MIC of F3 against different bacteria were measured by using a micro-broth dilution method developed by the Clinical and Laboratory Standards Institute ([33]). Briefly, the bacterial suspension with absorbance ranging from 0.08 to 0.10 was prepared and 100 µL of the bacterial suspension to a 96 U-shaped well culture plate. The dalbavancin HCl and sodium fusidate were prepared into 328 µM, polymyxin B was prepared at 840.7 µM with phosphate-buffered saline (PBS). Concentrations of F1 and F3 and of F-K were diluted to […] and 479.8 μM, and they were added into 96-well plates with concentration gradients of 310.5, 155.2, 77.6, 38.8, 19.4, 9.7, and 4.9 µM, respectively, with three replicates for each concentration, the equivalent volume of PBS was added as a growth control. The bacteria were cultured at 37°C for 24 h. The optical density (OD) value at 600 nm was measured with a MULTISKAN GO microplate spectrophotometer.

P. aeruginosa (GDM1.443) = experiment: MIC by micro-broth dilution (CLSI); type: cell-based,  Pseudomonas aeruginosa; settings: Fig. 1F; for inhibition of P. aeruginosa growth (in words): MIC test
Description: as §1

A. baumannii (GDM1.609) = experiment: MIC by micro-broth dilution (CLSI); type: cell-based, Acinetobacter baumannii; settings: Fig. 1D; for inhibitory activity on A. baumannii (in words): MIC test; for MIC: micro-broth dilution, 37°C, 24 h, OD 600 nm, three replicates
Description: as §1

bacteria = settings: after repeatedly in vitro culture; cited from earlier work
From the text: Moreover, caerin 1.1 has an additive antibacterial effect when used together with caerin 1.9. Caerin 1.1 and caerin 1.9 prepared in the form of a temperature-sensitive gel inhibit MRSA growth in a skin bacterial infecti ...

[1] = pH 5.5; cited from earlier work

For `CN[C@H]1C(=O)N[C@@H]2Cc3ccc(cc3)Oc3cc4cc(c3O[C@@H]3O[C@H](C(=O)O)[C@@H](O)[C@H](O)[C@H]3NC(=O)CCCCCCCCC(C)C)Oc3ccc(cc3Cl)[C@@H](O)[C@@H]3NC(=O)[C@H](NC(=O)[C@@H]4NC(=O)[C@@H](NC2=O)c2cc(cc(O)c2Cl)Oc2cc1ccc2O)c1ccc(O)c(c1)-c1c(O[C@H]2O[C@H](CO)[C@@H](O)[C@H](O)[C@@H]2O)cc(O)cc1[C@@H](C(=O)NCCCN(C)C)NC3=O` [Dalbavancin, dalbavancin], the “inhibition of E. coli growth (in words)” value (E. coli (GDM1.176)) was “incapable of stopping these bacterial growth”, the “inhibition of P. aeruginosa growth (in words)” value (P. aeruginosa (GDM1.443)) was “incapable of stopping these bacterial growth” and the “inhibitory activity on A. baumannii (in words)” value (from here on “inhibitory activity”) (A. baumannii (GDM1.609)) was “no inhibitory activity”.

With `CC(=O)O[C@H]1C[C@@]2(C)[C@@H](C[C@@H](O)[C@H]3[C@@]4(C)CC[C@@H](O)[C@@H](C)[C@@H]4CC[C@@]32C)/C1=C(\CCC=C(C)C)C(=O)O` [Sodium Fusidate, Sodium fusidate] the MIC (E. coli (GDM1.176); Escherichia coli, 24 h) was 78.7 µM, the “inhibition of E. coli growth (in words)” value (E. coli (GDM1.176)) was “incapable of stopping these bacterial growth” and the “inhibition of P. aeruginosa growth (in words)” value (P. aeruginosa (GDM1.443)) was “incapable of stopping these bacterial growth”. The MIC (P. aeruginosa (GDM1.443); Pseudomonas aeruginosa, micro-broth dilution, 37°C, 24 h, OD 600 nm, three replicates) was 78.7 µM, the MIC (A. baumannii (GDM1.609); Acinetobacter baumannii, read-out: MIC) was 19.7 µM and the “inhibitory activity” value (A. baumannii (GDM1.609)) was “no inhibitory activity”.

For “GLFGVLGSIAKHVLPHVVPVIAEKL-NH2 [F3, host defense peptide caerin 1.9, originally isolated from the Australian tree frog, synthesized]”, the “induction of bacterial resistance” value (bacteria) is given as “did not induce bacterial resistance”, the “inhibition of E. coli growth (in words)” value (E. coli (GDM1.176)) is given as “suppression of the growth of E. coli and P. aeruginosa at high concentrations” and the “stability at pH and temperature” value [1] is given as “stable at low pH (5.5–7.4) and room temperature”. The “inhibition of P. aeruginosa growth (in words)” value (P. aeruginosa (GDM1.443)) was “suppression of the growth of E. coli and P. aeruginosa at high concentrations”, the “inhibitory activity” value (A. baumannii (GDM1.609)) was “comparable inhibition” and the MIC (A. baumannii (GDM1.609)) was “around 5 μM”.

In the case of “GLLSVLGSVAKHVLPHVVPVIAEHL-NH2 [F1, host defense peptide caerin 1.1, originally isolated from the Australian tree frog, synthesized]”, the “inhibition of E. coli growth (in words)” value (E. coli (GDM1.176)) is listed as “suppression of the growth of E. coli and P. aeruginosa at high concentrations”, the “stability at pH and temperature” value [1] is listed as “stable at low pH (5.5–7.4) and room temperature” and the “inhibition of P. aeruginosa growth (in words)” value (P. aeruginosa (GDM1.443)) is listed as “suppression of the growth of E. coli and P. aeruginosa at high concentrations”. For the same compound, the “inhibitory activity” value (A. baumannii (GDM1.609)) was “comparable inhibition” and the MIC (A. baumannii (GDM1.609)) was “around 5 μM”.

For “PLLLLLPSLLTATL-NH2 [F-K, positive control antimicrobial peptide]”, the “inhibition of E. coli growth (in words)” value (E. coli (GDM1.176)) was “the best at inhibiting these two strains of bacteria”, the “inhibition of P. aeruginosa growth (in words)” value (P. aeruginosa (GDM1.443)) was “the best at inhibiting these two strains of bacteria” and the “inhibitory activity” value (A. baumannii (GDM1.609)) was “comparable inhibition”.
